Results on two compounds are retold here after patent US9879308B2, “Apparatus for ex vivo microfluidic analysis of biologic samples” (The Charles Stark Draper Laboratory, Inc., priority 2012, dated 2018).

For series [1], the system named is FNAB osteosarcoma samples. Put plainly: Active caspase ELISA of perfused fluid from fluidic apparatus. The class given is cell-based, human. To be noted: data not shown. Here is the method:
The fluidic apparatuses were connected to their respective syringe pumps. The FNAB samples were first primed with several passes of culture media. After priming, each FNAB sample was subject to constant laminar flow at 100 μl/hr for 72 hours with their respective treatment. Media was collected every 24 hours and analyzed for caspase 3 and 7 and lactate dehydrogenase (LDH).
(§1) FIG. 8 provides an expanded view of an extracted ion chromatogram (XIC) from a potential metabolite highlighted against the background sample. Perfused fluid was collected from the fluidic apparatus as described in the above experiment performed with the FNAB samples (FIGS. 2A-C) to determine whether tumor-mediated drug processing and metabolism can be analyzed. Fluidic samples were prepared by filtration and analyzed by mass spectrometry.

The subject of series [2] is tumor fragments obtained by FNAB from a patient-derived osteosarcoma xenograft model. The class given is in vitro ADME, human. Here is the method:
as §1

The test system of series [3] is FNAB osteosarcoma samples. Kind of series: Ex vivo treatment of FNAB osteosarcoma samples in microfluidic apparatus, LIVE/DEAD fluorescence staining. The class given is cell-based, human. From the text:
Eight micro-scale fluidic apparatuses of the present technology were fabricated from soft photolithography and bonded onto glass coverslip slides. The apparatuses were sterilized by ethylene oxide (EtO) gas. Each fluidic apparatus included a single channel, and the center of the channel contained a series of seven free standing post, collectively called the retaining element, which were used to retain the FNBA osteosarcoma sample (see FIG. 3A). Fluid flows into the channel by an inlet port and out of the channel by an outlet port.
FNAB osteosarcoma samples were taken from xenograft mouse with patient-derived osteosarcoma using a 25-gauge needle. FNABs were processed and selected for viability by H&E staining procedures before use and individually loaded one into each retaining element and imaged by microscopy and measured for size (all FNABs assayed were ˜300 μm in diameter). […]
The fluidic apparatuses were connected to their respective syringe pumps. […] Media was collected every 24 hours and analyzed for caspase 3 and 7 and lactate dehydrogenase (LDH). […]
The FNAB samples were fully penetrated by drugs. Tumor cells were stained with HCS LIVE/DEAD® Green Kit (Life Technologies, Carlsband, Calif.) and images were obtained using inverted fluorescence microscope to assess dead (green) and alive (blue) cells.

The test system of a further series is CDC2Y15. Kind of series: Western blot of CDC2Y15 expression in FNAB cell extracts from treated xenograft mice. To be noted: in vivo treatment; compared to vehicle and gemcitabine treatments; FIG. 7A column (a). Also noted: species or system mouse. Here is the method:
(§2) Xenograft mice bearing human osteosarcoma tumor were treated with vehicle, gemcitabine, MK-1775, or a combination of gemcitabine and MK-1775 for 15 days. Treatments were administered on day 1, 3, 8, and 10. FNAB samples were taken before (day 0) and at 6 and 24 hours after treatment. Cell extracts were prepared from the FNAB samples to assess expression levels of CDC2Y15, a target for MK-1775, by Western blot. After day 15, tumors were analyzed by T2-weighted MRIs and paraffin sections of tumors were prepared to assess microscopic features of cell death by H&E-staining and to assess levels of cleaved-caspase 3.

Series [4] relates to patient-derived osteosarcoma xenograft. Kind of series: Treatment of patient-derived osteosarcoma xenograft mice in vivo (MRI tumor volume, H&E, cleaved-caspase 3). Also noted: species or system mouse. Here is the method:
as §2
The symbol (*) indicates statistical significance (p<0.05).
In general terms: A xenograft is tissue or cells of one species grown in another, often human tumour cells in immunodeficient mice.

The mark [5] stands for this setting: compared to vehicle and gemcitabine treatments, FIG. 7A column (c).

Read-outs that look alike come from different tables or passages of the source.

In the case of `C=CCn1c(=O)c2cnc(Nc3ccc(N4CCN(C)CC4)cc3)nc2n1-c1cccc(C(C)(C)O)n1` [MK-1775], the “cell death by active caspase ELISA” value in series [1] is on record as “increased cell death”. Further, in series [2] (human), the “drug metabolism by tumor fragments (mass spectrometry)” value is on record as “metabolism of MK-1775 into its metabolized forms”. For the same compound, the “cell death in tumor fragments ex vivo” value in series [3] (1 μM MK-1775, 3 μM gemcitabine, 100 μl/hr for 72 hours, LIVE/DEAD stain, FIG. 7C) is “lead to cell death”. Further, the “apoptosis of the cancer cells, ex vivo model” value in series [3] (72 hour period) was “able to induce apoptosis”. In addition, the “expression levels of CDC2Y15” value in the series with CDC2Y15 was “reduces expression levels of CDC2Y15”. Also, the “apoptosis of the cancer cells, in vivo model” value in series [4] (15 days of treatment) is “able to induce apoptosis”. In series [4] (setting [5]), the “DNA staining of tumor sections” value is on record as “decreased DNA staining” and the “immunoreactivity to caspase 3” value was “high immunoreactivity to caspase 3”. In addition, the “tumor volume at day 15” value in series [4] (day 15, compared to vehicle and gemcitabine treatments, FIG. 7A column (b)) is recorded as “reduced tumor volume”. The “cell death in vivo” value in series [4] (patient-derived osteosarcoma xenograft mouse model, FIG. 7A) is “lead to cell death”.
On to `Nc1ccn([C@@H]2O[C@H](CO)[C@@H](O)C2(F)F)c(=O)n1` [gemcitabine], for which the “cell death by active caspase ELISA” value in series [1] is given as “not”. In addition, the “drug metabolism by tumor fragments (mass spectrometry)” value in series [2] is “active metabolism of gemcitabine into its active form, triphosphate”.
